Results reported in patent publication US8425945B2, “Methods and compositions for regulating biofilm development” (NewSouth Innovations Pty Limited, priority 2005, dated 2013).

What was measured:
[1] = system: S. marcescens biofilms; assay: Dispersal of biofilms on slides, surface coverage; assay type: cell-based, Serratia marcescens; settings: SNAP 100 nM, 24 hours
[2] = system: P. aeruginosa PAO1; assay: Biofilm to planktonic transition on microscope slides in petri dishes with NO donors/scavenger; assay type: cell-based, Pseudomonas aeruginosa; settings: for biofilm formation (percentage of surface coverage) / planktonic growth (OD600 nm of supernatant): NO donor 1 μM, 24 hours, lesser extent than SNP
[3] = system: Vibrio cholerae biofilms; assay: Dispersal of biofilms on slides, surface coverage; assay type: cell-based; settings: 1 μM GSNO, 24 hours
[4] = system: P. aeruginosa biofilms; assay: Sensitivity of biofilms grown with SNP to antimicrobial agents; assay type: cell-based, Pseudomonas aeruginosa; settings: tobramycin 100 μM, 30 minutes, with 500 nM SNP

SMILES	biofilm formation (percentage of surface coverage) [2]	planktonic growth (OD600 nm of supernatant) [2]	also measured
CC(=O)N[C@H](C(=O)O)C(C)(C)SN=O (racemic) [SNAP, S-nitroso-N-acetylpenicillamine]	decreases in biofilm formation	increases in planktonic growth	dispersal of biofilms [1]: effective for dispersal
N[C@@H](CCC(=O)N[C@@H](CSN=O)C(=O)NCC(=O)O)C(=O)O [GSNO, S-nitroso-L-glutathione]	decreases in biofilm formation	increases in planktonic growth	stability of biofilms [3]: significant effect on stability
CC1(C)N([O])C(c2ccccc2)=[N+]([O-])C1(C)C [PTIO, 2-phenyl-4,4,5,5-tetramethyl-imidazoline-1-oxyl 3-oxide]	–	–	reduction of the SNP effect in both planktonic and biofilm phenotypes ([2]; PTIO 1 mM in addition to SNP 500 nM): ≥ 40%
NC[C@H]1O[C@H](O[C@H]2[C@H](O)[C@@H](O[C@H]3O[C@H](CO)[C@@H](O)[C@H](N)[C@H]3O)[C@H](N)C[C@@H]2N)[C@H](N)C[C@@H]1O [tobramycin]	–	–	antimicrobial giving the highest effect in combination with SNP [4]: highest effect
